{
  "source": "patent US20240209028A1",
  "about": "“CNP COMPOUNDS” (priority 2022, published 2024)",
  "assay": "Accelerated chemical stability (RP-UPLC recovery and LCMS degradation pattern, 37° C.)",
  "type": "physicochemical",
  "parameters": "Isomers TZ / Isomers 2 W / Loss of 18 amu TZ / Loss of 18 amu 2 W / Fragments TZ / Fragments 2 W / Fragments 1 W / Fragments 3 W / Fragments 4 W / Fragments 5 W / Fragments 6 W / Others 1 W / Others 3 W / Others 4 W / Others 5 W / Others 6 W / Isomers 1 W / Isomers 3 W / Isomers 4 W / Isomers 5 W / Isomers 6 W / Loss of 18 amu 1 W / Loss of 18 amu 3 W / Loss of 18 amu 4 W / Loss of 18 amu 5 W / Loss of 18 amu 6 W: unit not given here",
  "settings": "LCMS, 6 week study",
  "protocol": "In order to determine the chemical stability of CNP compounds in formulation, samples of CNP compounds in buffer were exposed to accelerated chemical degradation by heating. The stability of a given peptide was assessed by measuring recovery of intact peptide by quantification by RP-UPLC. To assess the chemical degradation pattern samples were also analysed by LC-MS.\nSample preparation: Samples for the 2 week study were prepared according to the principles described in Example 5.\nSamples for the 6 week study were prepared by dissolving lyophilized peptide in buffer (8 mM phosphate, 250 mM glycerol, pH 7.4) to a nominal peptide concentration of 5000 nmol/ml followed by pH adjustment with 0.1 N HCl to pH 6.5.\nIncubation: For the 2 week study a time-zero (TZ) sample was pulled and stored at −18° C. and the remaining volume was incubated at 37° C. Samples were pulled and stored at −18° C. after 2 weeks of incubation. Frozen samples were thawed, diluted to about 200 nmol/mL and the extent of chemical degradation was determined using LCMS as described.\nFor the 6 week study a time-zero (TZ) sample was pulled and stored at −18° C. and the remaining volume was incubated at 37° C. Samples were pulled on a weekly basis and stored at −18° C. until the last sampling time point at 6 weeks. Frozen samples were thawed, diluted to about 200 nmol/mL and the extent of chemical degradation was determined using RP-UPLC and LCMS as described.\nAnalysis of peptide recovery by RP-UPLC: The RP-UPLC method was performed on a Waters ACQUITY H-CLASS UPLC system fitted with a PDA detector. Separation was carried out on an ACQUITY UPLC BEH C8 Column (130 Å, 1.7 μm, 2.1 mm×150 mm) operating at a column temperature of 50° C. with eluent A (19.59 mM NH4H2PO4 41.71 mM (NH4)2HPO4, pH 6.5 and MeCN 9:1 v:v) and eluent B (80% MeCN in water). UV-detection was carried out at 214 nm. The analysis was performed by injection of 3 μL of sample onto the column which was eluted with a 1-step linear gradient of eluents A and B from 27 to 30% B over 20 minutes followed by a wash at 95% B over 2 minutes followed by a re-equilibration phase for 7 minutes at a constant flow rate of 0.3 mL/min. This yielded an analysis time of 30 minutes per sample. The area of the peak corresponding to intact CNP compound was given on a percentage scale relative to the total peptide peak area.\nAnalysis of chemical degradation patterns by LCMS: Samples were analysed on a […] UPLC from Thermo Scientific, using a Waters Acquity C18 reversed-phase column, 300 Å, […] particles 1 mm×150 mm. The compounds were separated by a linear gradient of solvent B from 5% to 55% over 48 minutes, using solvent A: water, 0.1% formic acid with 0.02% TFA and solvent B: acetonitrile, 0.1% formic acid with 0.02% TFA. Mass spectra were acquired by a Q Exactive Plus hybrid Quadrupole-Orbitrap mass spectrometer, BioPharma option (Thermo Scientific) interfaced with H-ESI II ion source. Data acquisitions were performed with a m/z 500 to 2000 scan range and a resolution of 30000.\nThe data list was aggregated into a summed table of the compounds. The table headers were defined as follows: […]\nResults: The results from LCMS analysis of a 2 week accelerated degradation study on several CNP compounds of the present invention are summarised in Table 12. The results from RP-UPLC and LCMS analysis of a 6 week accelerated degradation study on CNP compound 9482 (Chem. 137) is summarised in Table 13 and Table 14 respectively.",
  "note": "Starred links: 1 amine or outer side, 2 acyl side, 3 side chain; linkers in the order of their positions; H or OH if unused. Positions of bridges follow the written chain, without caps; N, C: chain ends. Residues, ends and D or L forms follow the SMILES beside them. *: point of attachment. C18 diacid = O=C(O)CCCCCCCCCCCCCCCCC(=O)*; γGlu = O=C(O)[C@H](CCC(=O)[*:2])N[*:1]",
  "data": [
    {"molecule": "CC[C@H](C)[C@@H]1NC(=O)[C@H](CCCNC(=N)N)NC(=O)[C@H](CC(=O)O)NC(=O)[C@H](CC(C)C)NC(=O)[C@@H]2CCCN2C(=O)[C@H](CC(C)C)NC(=O)CNC(=O)[C@H](Cc2ccccc2)NC(=O)[C@@H](NC(=O)CNC(=O)[C@H](CO)NC(=O)[C@H](CO)NC(=O)[C@H](CC(C)C)NC(=O)CNC(=O)[C@H](CCCCN)NC(=O)[C@H](CCCCN)NC(=O)[C@H](CCC(N)=O)NC(=O)[C@H](C)NC(=O)CNC(=O)[C@H](CCCCN)NC(=O)[C@H](Cc2ccc(O)cc2)NC(=O)[C@H](CCCCN)NC(=O)[C@H](CCCNC(=N)N)NC(=O)[C@H](C)NC(=O)[C@H](CCC(N)=O)NC(=O)[C@@H]2CCCN2C(=O)[C@H](Cc2c[nH]cn2)NC(=O)[C@H](CCC(=O)O)NC(=O)[C@H](CCC(N)=O)NC(=O)CC[C@H](NC(=O)CC[C@H](NC(=O)CC[C@H](NC(=O)CC[C@H](NC(=O)CC[C@H](NC(=O)CCCCCCCCCCCCCCCCC(=O)O)C(=O)O)C(=O)O)C(=O)O)C(=O)O)C(=O)O)CSSC[C@@H](C(=O)O)NC(=O)CNC(=O)[C@H](CC(C)C)NC(=O)CNC(=O)[C@H](CO)NC(=O)[C@H](CC(C)C)NC(=O)[C@H](CO)NC(=O)CNC1=O", "note": "[compound 9482] ({C18 diacid-γGlu-γGlu-γGlu-γGlu-γGlu}-QEHPQARKYKGAQKKGLSSGCFGLPLDRIGSLSGLGC-OH; disulfide 21-37)", "values": [
      {"measurement": "Fragments 1 W", "setting": "1 week at 37° C.", "value": 0.20},
      {"measurement": "Isomers 1 W", "setting": "1 week at 37° C.", "value": 0.00},
      {"measurement": "Loss of 18 amu 1 W", "setting": "1 week at 37° C.", "value": 0.00},
      {"measurement": "Others 1 W", "setting": "1 week at 37° C.", "value": 0.30},
      {"measurement": "Fragments 2 W", "setting": "2 weeks at 37° C.", "value": 0.30},
      {"measurement": "Isomers 2 W", "setting": "2 weeks at 37° C.", "value": 0.60},
      {"measurement": "Loss of 18 amu 2 W", "setting": "2 weeks at 37° C.", "value": 0.10},
      {"measurement": "Others 2 W", "setting": "2 weeks at 37° C.", "value": 0.3, "unit": "%"},
      {"measurement": "Fragments 3 W", "setting": "3 weeks at 37° C.", "value": 0.50},
      {"measurement": "Isomers 3 W", "setting": "3 weeks at 37° C.", "value": 1.20},
      {"measurement": "Loss of 18 amu 3 W", "setting": "3 weeks at 37° C.", "value": 0.10},
      {"measurement": "Others 3 W", "setting": "3 weeks at 37° C.", "value": 0.30},
      {"measurement": "Fragments 4 W", "setting": "4 weeks at 37° C.", "value": 0.90},
      {"measurement": "Isomers 4 W", "setting": "4 weeks at 37° C.", "value": 1.70},
      {"measurement": "Loss of 18 amu 4 W", "setting": "4 weeks at 37° C.", "value": 0.20},
      {"measurement": "Others 4 W", "setting": "4 weeks at 37° C.", "value": 0.50},
      {"measurement": "Fragments 5 W", "setting": "5 weeks at 37° C.", "value": 0.80},
      {"measurement": "Isomers 5 W", "setting": "5 weeks at 37° C.", "value": 2.40},
      {"measurement": "Loss of 18 amu 5 W", "setting": "5 weeks at 37° C.", "value": 0.20},
      {"measurement": "Others 5 W", "setting": "5 weeks at 37° C.", "value": 0.40},
      {"measurement": "Fragments 6 W", "setting": "6 weeks at 37° C.", "value": 1.20},
      {"measurement": "Isomers 6 W", "setting": "6 weeks at 37° C.", "value": 3.90},
      {"measurement": "Loss of 18 amu 6 W", "setting": "6 weeks at 37° C.", "value": 0.30},
      {"measurement": "Others 6 W", "setting": "6 weeks at 37° C.", "value": 0.50},
      {"measurement": "Fragments TZ", "setting": "time zero", "value": 0.00},
      {"measurement": "Isomers TZ", "setting": "time zero", "value": 0.00},
      {"measurement": "Loss of 18 amu TZ", "setting": "time zero", "value": 0.00},
      {"measurement": "Others TZ", "setting": "time zero", "value": 0.2, "unit": "%"}
    ]}
  ]
}
